Reference: US20220225597A1, “MOUSE MODEL FOR ASSESSING TOXICITIES ASSOCIATED WITH IMMUNOTHERAPIES” (Juno Therapeutics, Inc., priority 2017, published 2022)

Columns and labels:
BALB/c mice [1] = type: in vivo, mouse
Protocol: Various parameters relating to toxicity were assessed in BALB/c mice produced to develop B cell aplasia following administration of an immunotherapy involving anti-CD19 CAR T cells substantially as described in Example 2.
At 24, 48, and 72 hours after infusion with cell compositions, the three healthiest mice from each group were anesthetized, transcardially perfused with phosphate buffered saline (PBS) to flush brain blood vessels, and sacrificed. Blood and tissue samples (spleen, kidney, liver and brain) were collected for analysis of immune cell populations, gene expression, and blood chemistry. The blood and tissue samples were either processed for flow cytometry or were snap-frozen for RNA sequencing (RNA-Seq) analysis. For flow cytometry, tissue samples were digested and cell suspensions were layered over a density gradient to enrich immune cell populations.

BALB/c mice [2] = test: Survival in mouse model of toxicity (CPA, then muCAR-T or mock cells); type: in vivo; settings: 250 mg/kg CPA alone i.p.; tumor-free BALB/c mice
Protocol: (§1) A single dose of either 100 mg/kg or 250 mg/kg cyclophosphamide (CPA) was injected into naïve BALB/c mice (tumor-free) by intraperitoneal (i.p.) injection. Twenty-four hours later, about 5×10^6 mouse CAR-expressing T cells or mock (control) cells, generated as described in Example 1, were transferred into mice by intravenous injection into the lateral tail vein. As a control, mice were injected with CPA alone or were left untreated. Table E1 sets forth the treatment groups.

A20 cells = test: Tumor burden by histology; type: in vivo, mouse; settings: mice having received A20 cells i.v.
Protocol: To examine the effects of tumor burden on the toxicity following B cell aplasia in mice, BALB/c mice were injected with CD19-expressing A20 cells prior to treatment with CPA and mouse anti-CD19 CAR−T cells. A20 cells are a cell line of B lymphocytes derived from a spontaneous reticulum cell neoplasm in a BALB/cAnN mouse. As the cell line was originally derived from cells of an individual of a BALB/c mouse substrain, the cells are syngenic to the BALB/c mice and can be administered into an immunocompetent BALB/c mouse without triggering an immune response.
BALB/c mice were injected intravenously with A20 cells. […] Table E3 sets forth the treatment groups.
Tumor burden also was assessed by histology in treated mice.

BALB/c mice [3] = test: Serum chemistry profiles; settings: various time points following cell treatment
Protocol: The serum was stored at −20° C. prior to analysis for complete serum chemistry panels, including for levels of serum glucose, albumin, albumin to globulin (A/G) ratio, globulin, total protein, calcium, phosphorus, ALT, AST, and BUN enzymes.

BALB/c mice [4] = type: in vivo, mouse; remark: listed apart in the source
Protocol: as §1
Blood samples were collected from treated mice at days 3, 10, 17, 31 and, in some mice at day 43, following cell infusion. The pharmacokinetics (PK) in the blood of administered cells was assessed by detection of the surrogate marker Thy 1.1. The number of circulating B cells, T cells and CD11b+ cells in the blood at the time points following treatment also was assessed.

O=P1(N(CCCl)CCCl)NCCCO1 (centres unmarked) [CPA, cyclophosphamide]
circulating CD45+ live cells, CD11b+ cells, endogenous T cells and endogenous B cells in blood (BALB/c mice [1]; 250 mg/kg CPA pre-conditioning, continued to drop at least for 72 hours): depletion
immune cells in brain tissue, including endogenous T cells and endogenous B cells (BALB/c mice [1]; CPA pre-conditioning): depleted
immune cells (endogenous T cells, B cells, CD45+ cells, CD11b+ cells) in spleen, kidney and liver (BALB/c mice [1]; treatment with CPA): depletion
Survival (BALB/c mice [2]): 100%
A20 tumor masses in liver and spleen tissues (A20 cells): observed in some
serum Albumin to Globulin ratio (A/G ratio) (BALB/c mice [3]): significantly reduced
levels of circulating B cells (BALB/c mice [4]; 250 mg/kg CPA than 100 mg/kg CPA): reduced levels of circulating B cells to a greater degree
circulating B cells, T cells, and CD11b+ cells (BALB/c mice [4]; 100 or 250 mg/kg CPA i.p., blood): depleted
